Results published in US6516214B1, “Detection of stroke events using diffuse optical tomography” (The General Hospital Corporation, priority 2000, dated 2003).

Test: Monitoring cerebral blood flow in an adult human by DOT after an indocyanine green bolus
Type: in vivo
Text: A 100 mW, 808 nm laser diode coupled to a 1 mm diameter fused silica fiber was used to deliver light to an adult human head. Four diode detectors were coupled to the scalp via 3 mm diameter plastic fibers. The collecting fibers were positioned 1, 2, 3, and 4 cm from the emitting fiber. These four separations were chosen to discriminate between scalp signals and […]. Measurements made at 1 and 2 cm separations were sensitive to changes in the optical properties of only the skull and scalp. On the other hand, measurements made at 3 and 4 cm separations were sensitive to changes in the optical properties of the brain, skull, and scalp. The remitted intensity at the four positions was sampled at 4 Hz. Baseline data was collected for 10 seconds, followed by the bolus injection. The bolus consisted of a 2 ml saline solution of 40 mg of indocyanine green injected into a vein in the arm of the volunteer. This injection was immediately followed by a 10 ml saline flush.
The data is summarized in the graph of FIG. 15, showing the attenuation of the optical signal caused by passing of the bolus of indocyanine green through the brain of the adult human volunteer. […] The small increases in each signal at about 34 seconds resulted from the re-circulation of the indocyanine green bolus.

**Q.** With CC1(C)C(/C=C/C=C/C=C/C=C2\N(CCCCS(=O)(=O)O)c3ccc4ccccc4c3C2(C)C)=[N+](CCCCS(=O)(=O)[O-])c2ccc3ccccc3c21 [indocyanine green] as the compound, how does the “delay of the drop in the signals relative to 3 and 4 cm separations” value (1 and 2 cm optode separations (scalp and skull only)) read?
**A.** about 2 seconds

**Q.** And the “time following injection of the dye bolus at which the signal dropped significantly” value (3 and 4 cm optode separations, 40 mg in 2 ml saline i.v. in the arm, 808 nm)?
**A.** 20 s

**Q.** And the “time of small signal increases from re-circulation of the bolus” value (each signal, all separations)?
**A.** about 34 seconds

**Q.** And the “concentration of second passage bolus, times smaller than the first passage bolus” value (re-circulation)?
**A.** about 10 times
